{"source": "patent US20060069132A1", "about": "“Azolecarboxamide herbicides” (priority 2004, published 2006)", "key": {"[1]": {"system": "barnyardgrass", "assay": "Test B pre-/postemergence herbicide test", "type": "in vivo, Echinochloa crus-galli", "conditions": "Postemergence, scale 0 (no effect) to 100 (complete control)", "summary_of_the_method": "(§1)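 Plants compared with untreated controls 13–15 days post-treatment and given a visual 0–100 injury score. Applications: preemergence to seeds; postemergence at 1- to 4-leaf (2–18 cm); paddy species flooded, 2-leaf stage. Vehicle non-phytotoxic, surfactant included.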"}, "[2]": {"system": "Surinam grass", "assay": "Test B pre-/postemergence herbicide test", "type": "in vivo, Urochloa decumbens", "summary_of_the_method": "(§2)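 Visual rating, 0 (no effect) to 100 (complete control), versus untreated controls after 13–15 d in greenhouse. Pre- and postemergence applications (postemergence plants 2–18 cm, 1–4 leaves); flooded paddy arm at 2-leaf stage. Compounds in non-phytotoxic solvent plus surfactant.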"}, "[3]": {"system": "cocklebur", "assay": "Test B pre-/postemergence herbicide test", "type": "in vivo, Xanthium strumarium", "summary_of_the_method": "as §1"}, "[4]": {"system": "corn", "assay": "Test B pre-/postemergence herbicide test", "type": "in vivo, Zea mays", "summary_of_the_method": "as §2"}, "[5]": {"system": "large crabgrass", "assay": "Test B pre-/postemergence herbicide test", "type": "in vivo, Digitaria sanguinalis", "summary_of_the_method": "as §2"}, "[6]": {"system": "giant foxtail", "assay": "Test B pre-/postemergence herbicide test", "type": "in vivo, Setaria faberi", "summary_of_the_method": "as §2"}, "[7]": {"system": "lambsquarters", "assay": "Test B pre-/postemergence herbicide test", "type": "in vivo, Chenopodium album", "summary_of_the_method": "as §2"}, "[8]": {"system": "morningglory", "assay": "Test B pre-/postemergence herbicide test", "type": "in vivo, Ipomoea coccinea", "summary_of_the_method": "as §1"}, "[9]": {"system": "pigweed", "assay": "Test B pre-/postemergence herbicide test", "type": "in vivo, Amaranthus retroflexus", "summary_of_the_method": "as §2"}, "[10]": {"system": "velvetleaf", "assay": "Test B pre-/postemergence herbicide test", "type": "in vivo, Abutilon theophrasti", "summary_of_the_method": "as §2"}, "[11]": {"system": "blackgrass", "assay": "Test B postemergence herbicide test", "type": "in vivo, Alopecurus myosuroides", "summary_of_the_method": "(§3)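 Formulated test chemicals went onto postemergence plants measuring 2 to 18 cm, at one to four leaves. For the paddy assay, species had reached two leaves. Scoring took place 13–15 days later by eye, relative to untreated plants, using 0 for no effect up to 100 for full control.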"}, "[12]": {"system": "wheat", "assay": "Test B postemergence herbicide test", "type": "in vivo, Triticum aestivum", "parameters": "key to Wheat plant response rating: 0 = no effect, 100 = complete control", "summary_of_the_method": "as §3"}, "[13]": {"system": "wild oat", "assay": "Test B postemergence herbicide test", "type": "in vivo, Avena fatua", "summary_of_the_method": "as §3"}, "[14]": {"system": "rice", "assay": "Test B flooded paddy test", "type": "in vivo, Oryza sativa", "conditions": "scale 0 to 100 (0 no effect, 100 complete control)", "summary_of_the_method": "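Read-out: visual comparison with controls, scored 0 to 100, where 100 means complete control and 0 no effect. Formulated chemicals were applied postemergence to plants 2–18 cm tall (1- to 4-leaf), or to flooded-paddy plants at the 2-leaf stage, then held 13 to 15 days under glass.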"}, "[15]": {"system": "small flower umbrella sedge", "assay": "Test B flooded paddy test", "type": "in vivo, Cyperus difformis", "conditions": "scale 0 to 100 (0 no effect, 100 complete control)", "summary_of_the_method": "as §3"}, "[16]": {"system": "ducksalad", "assay": "Test B flooded paddy test", "type": "in vivo, Heteranthera limosa", "conditions": "scale 0 to 100 (0 no effect, 100 complete control)", "summary_of_the_method": "as §3"}, "[17]": {"system": "barnyardgrass", "assay": "Test B flooded paddy test", "type": "in vivo, Echinochloa crus-galli", "conditions": "scale 0 to 100 (0 no effect, 100 complete control)", "summary_of_the_method": "as §3"}, "[18]": {"system": "barnyardgrass", "assay": "Test A pre-/postemergence herbicide test", "type": "in vivo, Echinochloa crus-galli", "summary_of_the_method": "(§4)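 Both application timings were run together: directed soil spray over freshly planted seeds in sandy loam, and runoff spray onto 2–10 cm seedlings. Evaluation after ~10 days in greenhouse used a 0–100 visual scale versus untreated controls.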"}, "[19]": {"system": "large crabgrass", "assay": "Test A pre-/postemergence herbicide test", "type": "in vivo, Digitaria sanguinalis", "summary_of_the_method": "as §4"}, "[20]": {"system": "giant foxtail", "assay": "Test A pre-/postemergence herbicide test", "type": "in vivo, Setaria faberi", "summary_of_the_method": "as §4"}, "[21]": {"system": "morningglory", "assay": "Test A pre-/postemergence herbicide test", "type": "in vivo, Ipomoea spp.", "summary_of_the_method": "as §4"}, "[22]": {"system": "redroot pigweed", "assay": "Test A pre-/postemergence herbicide test", "type": "in vivo, Amaranthus retroflexus", "summary_of_the_method": "as §4"}, "[23]": {"system": "velvetleaf", "assay": "Test A pre-/postemergence herbicide test", "type": "in vivo, Abutilon theophrasti", "summary_of_the_method": "as §4"}, "[24]": {"conditions": "Postemergence, 500 g ai/ha, scale 0 (no effect) to 100 (complete control)"}, "[25]": {"conditions": "postemergence, 125 g ai/ha, scale 0 to 100"}, "[26]": {"conditions": "Postemergence, 125 g ai/ha, 0 to 100 scale, 0 no effect, 100 complete control"}, "[27]": {"conditions": "Postemergence, 500 g ai/ha, 0 to 100 scale, 0 no effect, 100 complete control"}, "[28]": {"conditions": "preemergence, 125 g ai/ha, visual injury, 0 to 100 scale (0 no effect, 100 complete control)"}, "[29]": {"conditions": "preemergence, 500 g ai/ha, visual injury, 0 to 100 scale (0 no effect, 100 complete control)"}}}
{"smiles": "C=CCN(C(C)=O)C(=O)c1ccc(F)c(NC(=O)c2cc(C(C)(C)C)nn2CC)c1", "note": "[Compound 442]", "values": [{"measurement": "Barnyardgrass plant response rating", "setting": "[1]; 125 g ai/ha", "result": 10}, {"measurement": "Barnyardgrass plant response rating", "setting": "[1]; 500 g ai/ha", "result": 20}, {"measurement": "Surinam Grass plant response rating", "setting": "[2]; [24]", "result": 20}, {"measurement": "Surinam Grass plant response rating", "setting": "[2]; [25]", "result": 20}, {"measurement": "Cocklebur plant response rating", "setting": "[3]; [24]", "result": 100}, {"measurement": "Cocklebur plant response rating", "setting": "[3]; [25]", "result": 80}, {"measurement": "Corn plant response rating", "setting": "[4]; [24]", "result": 30}, {"measurement": "Corn plant response rating", "setting": "[4]; [25]", "result": 30}, {"measurement": "Crabgrass, Large plant response rating", "setting": "[5]; [24]", "result": 20}, {"measurement": "Crabgrass, Large plant response rating", "setting": "[5]; [25]", "result": 10}, {"measurement": "Foxtail, Giant plant response rating", "setting": "[6]; [24]", "result": 20}, {"measurement": "Foxtail, Giant plant response rating", "setting": "[6]; [25]", "result": 20}, {"measurement": "Lambsquarters plant response rating", "setting": "[7]; [24]", "result": 70}, {"measurement": "Lambsquarters plant response rating", "setting": "[7]; [25]", "result": 40}, {"measurement": "Morningglory plant response rating", "setting": "[8]; [24]", "result": 30}, {"measurement": "Morningglory plant response rating", "setting": "[8]; [25]", "result": 20}, {"measurement": "Pigweed plant response rating", "setting": "[9]; [24]", "result": 70}, {"measurement": "Pigweed plant response rating", "setting": "[9]; [25]", "result": 50}, {"measurement": "Velvetleaf plant response rating", "setting": "[10]; [24]", "result": 30}, {"measurement": "Velvetleaf plant response rating", "setting": "[10]; [25]", "result": 30}, {"measurement": "Blackgrass plant response rating", "setting": "[11]; [24]", "result": 30}, {"measurement": "Blackgrass plant response rating", "setting": "[11]; [25]", "result": 30}, {"measurement": "Wheat plant response rating", "setting": "[12]; 500 g ai/ha, scale 0 to 100, 0 no effect, 100 complete control, preemergence", "result": 70}, {"measurement": "Wheat plant response rating", "setting": "[12]; [24]", "result": 40}, {"measurement": "Wheat plant response rating", "setting": "[12]; [25]", "result": 20}, {"measurement": "Oat, Wild plant response rating", "setting": "[13]; [24]", "result": 60}, {"measurement": "Oat, Wild plant response rating", "setting": "[13]; [25]", "result": 50}, {"measurement": "Rice plant response rating", "setting": "[14]; 125 g ai/ha", "result": 30}, {"measurement": "Sedge, Umbrella plant response rating", "setting": "[15]; 125 g ai/ha", "result": 70}, {"measurement": "Ducksalad plant response rating", "setting": "[16]; 125 g ai/ha", "result": 10}, {"measurement": "Barnyardgrass plant response rating", "setting": "[17]; 125 g ai/ha", "result": 0}]}
{"smiles": "CCn1nc(C(C)(C)C)nc1C(=O)Nc1cc(C(=O)N(C)C)ccc1F", "note": "[Compound 450]", "values": [{"measurement": "Barnyardgrass plant response rating", "setting": "[18]; [26]", "result": 60}, {"measurement": "Barnyardgrass plant response rating", "setting": "[18]; [27]", "result": 80}, {"measurement": "Barnyardgrass plant response rating", "setting": "[18]; [28]", "result": 60}, {"measurement": "Barnyardgrass plant response rating", "setting": "[18]; [29]", "result": 95}, {"measurement": "Crabgrass, Large plant response rating", "setting": "[19]; [26]", "result": 15}, {"measurement": "Crabgrass, Large plant response rating", "setting": "[19]; [27]", "result": 70}, {"measurement": "Crabgrass, Large plant response rating", "setting": "[19]; [28]", "result": 35}, {"measurement": "Crabgrass, Large plant response rating", "setting": "[19]; [29]", "result": 70}, {"measurement": "Foxtail, Giant plant response rating", "setting": "[20]; [26]", "result": 50}, {"measurement": "Foxtail, Giant plant response rating", "setting": "[20]; [27]", "result": 75}, {"measurement": "Foxtail, Giant plant response rating", "setting": "[20]; [28]", "result": 70}, {"measurement": "Foxtail, Giant plant response rating", "setting": "[20]; [29]", "result": 95}, {"measurement": "Morningglory plant response rating", "setting": "[21]; [26]", "result": 25}, {"measurement": "Morningglory plant response rating", "setting": "[21]; [27]", "result": 30}, {"measurement": "Morningglory plant response rating", "setting": "[21]; [28]", "result": 0}, {"measurement": "Morningglory plant response rating", "setting": "[21]; [29]", "result": 15}, {"measurement": "Pigweed plant response rating", "setting": "[22]; [26]", "result": 20}, {"measurement": "Pigweed plant response rating", "setting": "[22]; [27]", "result": 55}, {"measurement": "Pigweed plant response rating", "setting": "[22]; [28]", "result": 25}, {"measurement": "Pigweed plant response rating", "setting": "[22]; [29]", "result": 95}, {"measurement": "Velvetleaf plant response rating", "setting": "[23]; [26]", "result": 30}, {"measurement": "Velvetleaf plant response rating", "setting": "[23]; [27]", "result": 60}, {"measurement": "Velvetleaf plant response rating", "setting": "[23]; [28]", "result": 0}, {"measurement": "Velvetleaf plant response rating", "setting": "[23]; [29]", "result": 35}, {"measurement": "Rice plant response rating", "setting": "[14]; 125 g ai/ha", "result": 60}, {"measurement": "Rice plant response rating", "setting": "[14]; 500 g ai/ha", "result": 80}, {"measurement": "Sedge, Umbrella plant response rating", "setting": "[15]; 125 g ai/ha", "result": 60}, {"measurement": "Sedge, Umbrella plant response rating", "setting": "[15]; 500 g ai/ha", "result": 80}, {"measurement": "Ducksalad plant response rating", "setting": "[16]; 125 g ai/ha", "result": 40}, {"measurement": "Ducksalad plant response rating", "setting": "[16]; 500 g ai/ha", "result": 80}, {"measurement": "Barnyardgrass plant response rating", "setting": "[17]; 125 g ai/ha", "result": 50}, {"measurement": "Barnyardgrass plant response rating", "setting": "[17]; 500 g ai/ha", "result": 80}]}
